For 19 compounds, IC50 and melting point results are on record in US20100035866A1, “NOVEL SUBSTITUTED-1, 1-DIOXO-BENZO[1,2,4]THIADIAZIN-3ONES, PREPARATION METHOD THEREOF, AND PHARMACEUTICAL COMPOSITION CONTAINING THE SAME” (KOREA RESEARCH INSTITUTE OF CHEMICAL TECHNOLOGY, priority 2006, published 2010).

Each structure is given as a SMILES string.

Series [1] addresses Human serotonin 5-HT6 receptor (Homo sapiens, UniProt P50406). Kind of series: [3H]LSD binding assay on cloned 5-HT6 receptor. As to conditions: IC50 (nM), binding affinity to the 5-HT6 receptor, Table 2; 1.87 nM [3H]LSD, cloned human receptor membranes from Sf21 cells, 37° C. 60 min.

Sequence of Human serotonin 5-HT6 receptor (P50406 whole entry): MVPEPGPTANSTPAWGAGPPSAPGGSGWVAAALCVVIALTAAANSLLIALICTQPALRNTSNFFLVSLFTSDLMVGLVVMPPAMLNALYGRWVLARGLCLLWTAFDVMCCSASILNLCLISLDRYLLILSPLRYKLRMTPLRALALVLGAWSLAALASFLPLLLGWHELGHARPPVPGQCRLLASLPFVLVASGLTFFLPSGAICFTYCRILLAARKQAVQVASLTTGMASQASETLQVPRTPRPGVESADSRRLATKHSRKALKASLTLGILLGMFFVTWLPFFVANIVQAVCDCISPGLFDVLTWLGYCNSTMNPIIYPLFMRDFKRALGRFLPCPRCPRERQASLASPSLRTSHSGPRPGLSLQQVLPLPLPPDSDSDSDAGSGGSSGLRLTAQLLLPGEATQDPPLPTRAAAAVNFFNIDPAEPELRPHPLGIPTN

In the case of `CCCCN1C(=O)N(Cc2ccccc2)c2cc(Cl)cc(N3CCN(C)CC3)c2S1(=O)=O` [Example 35, 4-Benzyl-2-butyl-6-chloro-8-(4-methyl-piperazin-1-yl)-1,1-dioxo-1,4-dihydro-2H-1λ^6-benzo[1,2,4]thiadiazin-3-one], the melting point (commonly the temperature, or range, at which the solid turns liquid) is 116 to 118 °C. In addition, in series [1], the IC50 – broadly, the midpoint of a concentration-inhibition curve – is 1.9 nM.

In turn, `CN1CCN(c2cc(Cl)cc3c2S(=O)(=O)N(CC2CCCCC2)C(=O)N3Cc2ccccc2)CC1` [Example 36, 4-Benzyl-6-chloro-2-cyclohexylmethyl-8-(4-methyl-piperazin-1-yl)-1,1-dioxo-1,4-dihydro-2H-1λ^6-benzo[1,2,4]thiadiazin-3-one] registered a melting point of 155 to 158 °C. Also, the IC50 in series [1] was determined as 1.5 nM.

As for `CN1CCN(c2cc(Cl)cc3c2S(=O)(=O)N(CCc2ccccc2)C(=O)N3Cc2ccccc2)CC1` [Example 37, 4-Benzyl-6-chloro-8-(4-methyl-piperazin-1-yl)-1,1-dioxo-2-phenethyl-1,4-dihydro-2H-1λ^6-benzo[1,2,4]thiadiazin-3-one], the melting point lay in the range of 151 to 152 °C. In addition, the IC50 in series [1] amounted to 6.9 nM.

Compound `CN1CCN(c2cc(Cl)cc3c2S(=O)(=O)N(Cc2ccncc2)C(=O)N3Cc2ccccc2)CC1` [Example 42, 4-Benzyl-6-chloro-8-(4-methyl-piperazin-1-yl)-1,1-dioxo-2-pyridin-4-ylmethyl-1,4-dihydro-2H-1λ^6-benzo[1,2,4]thiadiazin-3-one] returned a melting point of 107 to 108 °C. Besides, in series [1], the half-inhibitory concentration (IC50) turned out to be 7.7 nM.

The compound `Cc1ccc(CN2C(=O)N(Cc3ccccc3)c3cc(Cl)cc(N4CCN(C)CC4)c3S2(=O)=O)o1` [Example 43, 4-Benzyl-6-chloro-2-(5-methyl-furan-2-ylmethyl)-8-(4-methyl-piperazin-1-yl)-1,1-dioxo-1,4-dihydro-2H-1λ^6-benzo[1,2,4]thiadiazin-3-one] had a melting point of 130 to 131 °C. Further, in series [1], the IC50 amounted to 75.9 nM.

In turn, `O=C1N(Cc2ccccc2)c2cc(Cl)cc(N3CCNCC3)c2S(=O)(=O)N1Cc1ccccc1F` [Example 45, 4-Benzyl-6-chloro-2-(2-fluoro-benzyl)-1,1-dioxo-8-piperazin-1-yl-1,4-dihydro-2H-1λ^6-benzo[1,2,4]thiadiazin-3-one] showed a melting point of 120 to 121 °C. This compound also yielded an IC50 in series [1] of 18.7 nM.

For `O=C1N(Cc2ccccc2)c2cc(Cl)cc(N3CCNCC3)c2S(=O)(=O)N1Cc1ccccc1Cl` [Example 47, 4-Benzyl-6-chloro-2-(2-chloro-benzyl)-1,1-dioxo-8-piperazin-1-yl-1,4-dihydro-2H-1λ^6-benzo[1,2,4]thiadiazin-3-one], the melting point was in the range of 126 to 127 °C. This compound also displayed an IC50 in series [1] of 15.9 nM.

In turn, `O=C1N(Cc2ccccc2)c2cc(Cl)cc(N3CCNCC3)c2S(=O)(=O)N1Cc1ccccc1Br` [Example 48, 4-Benzyl-2-(2-bromo-benzyl)-6-chloro-1,1-dioxo-8-piperazin-1-yl-1,4-dihydro-2H-1λ^6-benzo[1,2,4]thiadiazin-3-one] yielded a melting point of 144 to 145 °C. In series [1], this compound displayed an IC50 of 46 nM.

Compound `O=C1N(Cc2ccccc2)c2cc(Cl)cc(N3CCNCC3)c2S(=O)(=O)N1Cc1ccc(I)cc1` [Example 49, 4-Benzyl-6-chloro-2-(4-iodo-benzyl)-1,1-dioxo-8-piperazin-1-yl-1,4-dihydro-2H-1λ^6-benzo[1,2,4]thiadiazin-3-one] came in with a melting point of 153 to 154 °C. Moreover, in series [1], the IC50 was 17.1 nM.

As for `Cc1ccccc1CN1C(=O)N(Cc2ccccc2)c2cc(Cl)cc(N3CCNCC3)c2S1(=O)=O` [Example 50, 4-Benzyl-6-chloro-2-(2-methyl-benzyl)-1,1-dioxo-8-piperazin-1-yl-1,4-dihydro-2H-1λ^6-benzo[1,2,4]thiadiazin-3-one], the melting point fell in the range of 70 to 72 °C. Further, in series [1], the IC50 amounted to 22.2 nM.

Compound `COc1ccccc1CN1C(=O)N(Cc2ccccc2)c2cc(Cl)cc(N3CCNCC3)c2S1(=O)=O` [Example 51, 4-Benzyl-6-chloro-2-(2-methoxy-benzyl)-1,1-dioxo-8-piperazin-1-yl-1,4-dihydro-2H-1λ^6-benzo[1,2,4]thiadiazin-3-one] displayed a melting point of 129 to 130 °C. Further, the IC50 in series [1] was 48.9 nM.

Consider `O=C1N(Cc2ccccc2)c2cc(Cl)cc(N3CCNCC3)c2S(=O)(=O)N1Cc1ccccc1[N+](=O)[O-]` [Example 55, 4-Benzyl-6-chloro-2-(2-nitro-benzyl)-1,1-dioxo-8-piperazin-1-yl-1,4-dihydro-2H-1λ^6-benzo[1,2,4]thiadiazin-3-one], for which the melting point lay in the range of 134 to 135 °C. Moreover, the IC50 in series [1] is 33 nM.

Regarding `COC(=O)c1ccc(CN2C(=O)N(Cc3ccccc3)c3cc(Cl)cc(N4CCNCC4)c3S2(=O)=O)cc1` [Example 56, 4-(4-Benzyl-6-chloro-1,1,3-trioxo-8-piperazin-1-yl-3,4-dihydro-1H-1λ^6-benzo[1,2,4]thiadiazin-2-ylmethyl)-benzoic acid methyl ester], the melting point was in the range of 136 to 139 °C. For the same compound, in series [1], the IC50 amounted to 8.4 nM.

Regarding `N#Cc1ccc(CN2C(=O)N(Cc3ccccc3)c3cc(Cl)cc(N4CCNCC4)c3S2(=O)=O)cc1` [Example 57, 4-(4-Benzyl-6-chloro-1,1,3-trioxo-8-piperazin-1-yl-3,4-dihydro-1H-1λ^6-benzo[1,2,4]thiadiazin-2-ylmethyl)-benzonitrile], the melting point was 135 to 137 °C. This compound also came in with a half-maximal inhibitory concentration (IC50) in series [1] of 18 nM.

As to `O=C1N(Cc2ccccc2)c2cc(Cl)cc(N3CCNCC3)c2S(=O)(=O)N1c1ccccc1` [Example 60, 4-Benzyl-6-chloro-1,1-dioxo-2-phenyl-8-piperazin-1-yl-1,4-dihydro-2H-1λ^6-benzo[1,2,4]thiadiazin-3-one], the melting point lay in the range of 275 to 277 °C. Besides, the 50% inhibitory concentration (IC50) in series [1] turned out to be 15.5 nM.

For the compound `COc1ccccc1N1C(=O)N(Cc2ccccc2)c2cc(Cl)cc(N3CCNCC3)c2S1(=O)=O` [Example 61, 4-Benzyl-6-chloro-2-(2-methoxy-phenyl)-1,1-dioxo-8-piperazin-1-yl-1,4-dihydro-2H-1λ^6-benzo[1,2,4]thiadiazin-3-one], the melting point lay within 175 to 176 °C. In series [1], this compound gave a half-inhibitory concentration (IC50) of 50.7 nM.

Consider `COc1ccc(N2C(=O)N(Cc3ccccc3)c3cc(Cl)cc(N4CCNCC4)c3S2(=O)=O)cc1` [Example 63, 4-Benzyl-6-chloro-2-(4-methoxy-phenyl)-1,1-dioxo-8-piperazin-1-yl-1,4-dihydro-2H-1λ^6-benzo[1,2,4]thiadiazin-3-one], for which the melting point lay within 155 to 156 °C. The IC50 in series [1] is 28 nM.

Take `CCN1C(=O)N(Cc2ccccc2)c2cc(Cl)cc(N3CCNCC3)c2S1(=O)=O` [Example 64, 4-Benzyl-6-chloro-2-ethyl-1,1-dioxo-8-piperazin-1-yl-1,4-dihydro-2H-1λ^6-benzo[1,2,4]thiadiazin-3-one]: the melting point fell in the range of 158 to 161 °C. This compound also had an IC50 in series [1] of 4.6 nM.

`O=C1N(Cc2ccccc2)c2cc(Cl)cc(N3CCNCC3)c2S(=O)(=O)N1Cc1cccc2ccccc12` [Example 68, 4-Benzyl-6-chloro-2-naphthalen-1-ylmethyl-1,1-dioxo-8-piperazin-1-yl-1,4-dihydro-2H-1λ^6-benzo[1,2,4]thiadiazin-3-one]: the melting point lay within 164 to 166 °C. In series [1], this compound yielded an IC50 of 6.9 nM.
